The numbers were not newly measured in patent US20240226060A1, “TOPICAL LIPOSOME POLYPHENOL COMPOSITIONS FOR TREATING AND PREVENTING VARIOUS SKIN DISORDERS AND METHODS OF PREPARATION THEREOF” (PANAG PHARMA INC., priority 2021, published 2024), which cites them from elsewhere.

Read-outs that look alike come from different tables or passages of the source.

The conditions of data set [1]: simulated physiological conditions pH 7.4 and 37° C., within 24 hours.
The subject of another data set is epidermolysis bullosa. Conditions: CBD oil, 3 patients.
The test system of another data set is facial acne vulgaris. The settings on record: for revised Leeds score at week 8: baseline 5.1.
Assay in data set [2]: not given
This is another data set of the same source.

The next data set concerns facial skin aging. Conditions: 1% apigenin cream, twice daily, 2 and 4 weeks.
The conditions of data set [3]: 2% minoxidil in MLVs.
Where [4] appears, read: surfactant micelles, U.S. Pat. No. 10,709,748.
[5] abbreviates: 1% EGCG, 8 weeks, vs baseline and vehicle.
The mark [6] stands for this setting: twice daily 3 days, 4 hours after last dose.

As to `C=C(C)[C@@H]1CCC(C)=C[C@H]1c1c(O)cc(CCCCC)cc1O` [CBD, cannabidiol], the “joint swelling and pain” value in the data set with CFA-induced arthritis (1% CBD gel on shaved back, 4 days) is “optimally reduced swelling and alleviated pain”; in the data set with CFA-induced arthritis (10% CBD gel versus 1%), “did not yield additional improvement”. Also, the CFA-induced edema entry with CFA-induced arthritis (lower doses (0.1, 0.5% CBD gel)) is recorded as “no effect”. The CBD loss in data set [1] is 10%. In addition, under setting [4], the encapsulation efficiency is reported as 86%. Further, in the data set on epidermolysis bullosa, the patient-reported outcome was “faster wound healing, less blistering, and amelioration of pain”.
Regarding `Clc1ccc(COC(Cn2ccnc2)c2ccc(Cl)cc2Cl)c(Cl)c1` (stereo not drawn) [miconazole nitrate], the encapsulation efficiency (proliposome method with propylene glycol, El-Khordagui et al) is recorded as 95.6%.
On to epigallocatechin 3-gallate [EGCG], for which the “revised Leeds score at week 8” value with facial acne vulgaris (1% EGCG hydroalcoholic solution) is recorded as 1.2. Further, in the data set with facial acne vulgaris (setting [5]), the “mean inflammatory lesion count decrease” value was 89% and the “mean noninflammatory lesion count decrease” value is given as 79%. In the data set with facial acne vulgaris (5% EGCG hydroalcoholic solution), the “revised Leeds score at week 8” value is on record as 1.7.
For `CC(=O)[C@H]1CC[C@H]2[C@@H]3CCC4=CC(=O)CC[C@]4(C)[C@H]3CC[C@]12C` [progesterone], where the note is “DPPC/cholesterol MLVs, thin film hydration, U.S. Pat. No. 4,485,054”, the “encapsulation efficiency (EE)” value is recorded as 77%.
Consider `O=c1cc(-c2ccc(O)cc2)oc2cc(O)cc(O)c12` [apigenin], for which, in data set [2] (ethanol), the solubility result is listed as “poor solubility”. Further, the solubility result in data set [2] (propylene glycol and polyethylene glycol 400) is “superior solubilities”. Besides, in the data set with facial skin aging, the “dermal density, skin elasticity, length of fine wrinkles” value is reported as “Significant improvements”; the “skin moisture content, TEWL and skin texture” value is “significantly improved”.
Regarding `Nc1cc(N2CCCCC2)nc(N)[n+]1[O-]` [minoxidil], the “drug in cumulative urine samples, liposome versus suspension & solution” value in [3] is given as “significant less drug”. Besides, in [3] (setting [6]), the “drug content in dermis, liposome versus suspension & solution” value was 4-5 fold; the “drug content in epidermis, liposome versus suspension & solution” value was 2-3 fold; the “drug content on skin surface, liposome versus suspension & solution” value was 3-4 fold.
Regarding isoscutellarein, the incorporation efficiency (liposomes, 9 parts egg PC to 2 parts flavonoid, Demetzos et al) is recorded as 95%.
As to `Oc1ccc(O)cc1` [hydroquinone], in the data set on melasma (4% cream in melasma patients), the “patients presenting with erythema, burning and scaling” value is 71%. Besides, the “MASI score reduction from baseline” value in the data set on melasma (4% cream, after three months) is recorded as 39%.
Consider `CCCCCc1cc(O)c2c(c1)OC(C)(C)[C@@H]1CCC(C)=C[C@@H]21` [THC, tetrahydrocannabinol], for which, under setting [4], the encapsulation efficiency was 92%.
